Laboratory results: BindingDB's records for doi:10.1021/cb500956g (University of North Carolina At Chapel Hill, 2015)

Columns and labels:
Test in all cases: AlphaScreen Assay
Details in all cases: pH 8
[1] = molecular target: T1, Lethal(3)malignant brain tumor-like protein 3 (Homo sapiens, UniProt Q96JM7)
T1 sequence (Q96JM7 whole entry): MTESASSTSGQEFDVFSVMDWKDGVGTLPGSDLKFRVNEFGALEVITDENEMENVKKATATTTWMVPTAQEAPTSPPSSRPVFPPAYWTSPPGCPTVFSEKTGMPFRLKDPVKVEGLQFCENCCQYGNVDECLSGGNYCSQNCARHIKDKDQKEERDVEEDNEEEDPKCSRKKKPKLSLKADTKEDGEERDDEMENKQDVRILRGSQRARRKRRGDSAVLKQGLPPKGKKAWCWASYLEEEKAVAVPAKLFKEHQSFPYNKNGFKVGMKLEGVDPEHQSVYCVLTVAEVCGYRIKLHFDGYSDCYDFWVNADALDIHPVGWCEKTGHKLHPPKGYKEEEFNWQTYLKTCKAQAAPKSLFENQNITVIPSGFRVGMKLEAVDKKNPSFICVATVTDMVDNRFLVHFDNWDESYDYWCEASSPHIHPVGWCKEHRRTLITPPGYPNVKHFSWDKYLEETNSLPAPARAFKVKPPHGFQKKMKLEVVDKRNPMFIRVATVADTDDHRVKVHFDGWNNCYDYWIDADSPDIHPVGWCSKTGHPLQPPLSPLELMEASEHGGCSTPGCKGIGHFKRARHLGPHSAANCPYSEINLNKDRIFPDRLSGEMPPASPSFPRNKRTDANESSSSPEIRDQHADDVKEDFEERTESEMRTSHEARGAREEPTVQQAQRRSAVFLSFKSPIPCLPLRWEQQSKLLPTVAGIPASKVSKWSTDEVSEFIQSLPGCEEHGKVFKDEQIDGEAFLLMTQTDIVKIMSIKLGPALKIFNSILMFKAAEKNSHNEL
Procedure: (§1) In brief, compound plates (1 μL at 10 mM highest concentration; 3-fold, 10-point dilutions in DMSO) were diluted in 1X assay buffer (20 mM TRIS pH 8.0, 25 mM NaCl, 2 mM DTT and 0.05% Tween-20) to 1 mM using a Multimek robotic pipettor (Nanoscreen), and 1 μL was spotted into the wells of 384-well low-volume Proxiplates (PerkinElmer). To these plates was added 9 μL of protein−peptide mix in a 1X assay buffer by Multidrop (Thermo) to bring the final compound concentration to 100 μM, and this was incubated for 30 min at RT. Next, 2 μL of a 1:1 mixture of streptavidin-conjugate donor and nickel-chelate acceptor beads (45μg/mL in 1X assay buffer) were added, and the plates were allowed to incubate for an additional 30 min in the dark at RT. After incubation, the plates were read on an EnVision multilabel reader equipped with an HTS AlphaScreen laser (PerkinElmer).

[2] = molecular target: Lysine-specific demethylase 5A (Homo sapiens, UniProt P29375)
Procedure: as §1

PHD finger protein 19 = PHD finger protein 19 (Homo sapiens, UniProt Q5T6S3)
Procedure: as §1

PHD finger protein 23 = PHD finger protein 23 (Homo sapiens, UniProt Q9BUL5)
Procedure: as §1

Measured: IC50

Sequence of PHD finger protein 23 (Q9BUL5 whole entry): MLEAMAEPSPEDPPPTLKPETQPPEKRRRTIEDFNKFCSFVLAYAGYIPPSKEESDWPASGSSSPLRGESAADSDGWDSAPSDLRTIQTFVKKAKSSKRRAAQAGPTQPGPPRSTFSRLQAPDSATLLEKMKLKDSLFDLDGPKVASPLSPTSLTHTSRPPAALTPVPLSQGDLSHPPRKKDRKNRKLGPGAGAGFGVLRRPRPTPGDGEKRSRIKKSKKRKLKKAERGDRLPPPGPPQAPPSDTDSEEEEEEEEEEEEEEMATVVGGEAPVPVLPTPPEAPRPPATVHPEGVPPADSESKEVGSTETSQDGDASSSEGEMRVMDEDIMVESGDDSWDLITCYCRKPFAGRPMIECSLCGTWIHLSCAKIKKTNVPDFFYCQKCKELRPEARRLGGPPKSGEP
Sequence of Lysine-specific demethylase 5A (P29375 whole entry): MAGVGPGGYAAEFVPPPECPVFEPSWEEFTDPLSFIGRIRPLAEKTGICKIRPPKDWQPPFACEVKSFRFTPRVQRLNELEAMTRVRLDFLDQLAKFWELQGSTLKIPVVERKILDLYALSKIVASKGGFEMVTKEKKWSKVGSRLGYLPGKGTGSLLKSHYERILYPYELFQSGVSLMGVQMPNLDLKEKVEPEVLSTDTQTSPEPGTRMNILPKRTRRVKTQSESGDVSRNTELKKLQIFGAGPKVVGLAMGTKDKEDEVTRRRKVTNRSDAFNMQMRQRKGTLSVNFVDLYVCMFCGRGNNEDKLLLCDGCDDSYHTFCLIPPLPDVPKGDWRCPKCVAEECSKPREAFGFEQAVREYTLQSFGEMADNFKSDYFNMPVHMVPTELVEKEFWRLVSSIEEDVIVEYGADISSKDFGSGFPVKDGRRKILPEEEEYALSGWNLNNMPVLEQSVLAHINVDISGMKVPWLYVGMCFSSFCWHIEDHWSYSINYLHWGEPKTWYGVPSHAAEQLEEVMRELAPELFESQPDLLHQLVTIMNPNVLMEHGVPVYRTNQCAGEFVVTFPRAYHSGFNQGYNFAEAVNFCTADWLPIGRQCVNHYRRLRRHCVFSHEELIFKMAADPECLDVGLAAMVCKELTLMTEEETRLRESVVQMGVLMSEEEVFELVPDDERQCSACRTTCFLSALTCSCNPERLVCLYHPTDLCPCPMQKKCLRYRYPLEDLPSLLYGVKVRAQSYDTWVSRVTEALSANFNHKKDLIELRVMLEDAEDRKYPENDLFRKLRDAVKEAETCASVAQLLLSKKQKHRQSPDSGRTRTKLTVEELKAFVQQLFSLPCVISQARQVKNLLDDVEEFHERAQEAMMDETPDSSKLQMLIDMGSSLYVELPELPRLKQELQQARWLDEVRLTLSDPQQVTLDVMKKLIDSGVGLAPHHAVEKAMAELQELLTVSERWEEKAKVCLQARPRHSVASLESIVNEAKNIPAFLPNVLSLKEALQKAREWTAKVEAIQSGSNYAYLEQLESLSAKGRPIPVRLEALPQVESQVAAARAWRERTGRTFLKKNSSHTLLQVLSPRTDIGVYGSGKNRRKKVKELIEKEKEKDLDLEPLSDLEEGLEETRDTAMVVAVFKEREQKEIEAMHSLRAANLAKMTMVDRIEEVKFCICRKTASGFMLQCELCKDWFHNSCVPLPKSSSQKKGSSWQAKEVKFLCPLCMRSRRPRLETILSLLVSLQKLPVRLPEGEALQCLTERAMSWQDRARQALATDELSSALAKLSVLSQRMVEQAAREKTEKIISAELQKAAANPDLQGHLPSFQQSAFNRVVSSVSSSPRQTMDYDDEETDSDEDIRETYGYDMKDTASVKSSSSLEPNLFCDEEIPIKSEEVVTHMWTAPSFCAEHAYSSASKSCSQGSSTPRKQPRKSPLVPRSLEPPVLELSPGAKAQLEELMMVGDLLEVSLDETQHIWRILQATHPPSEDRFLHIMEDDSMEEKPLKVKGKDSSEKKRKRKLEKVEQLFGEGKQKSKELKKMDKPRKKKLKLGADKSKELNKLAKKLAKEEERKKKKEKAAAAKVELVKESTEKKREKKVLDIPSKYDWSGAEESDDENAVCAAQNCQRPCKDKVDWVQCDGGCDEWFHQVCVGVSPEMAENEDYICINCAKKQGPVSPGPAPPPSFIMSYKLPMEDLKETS

CC(C)(C)NCCCNC(=O)c1ccccc1Br [2-Bromo-N-(3-(tert-butylamino)propyl)benzamide (16)]
> 100 µM: all assays above

CC(C)(C)NCCCCNC(=O)c1cccc(Br)c1 [3-Bromo-N-(4-(tert-butylamino)butyl)benzamide (11)]
> 100 µM: all assays above

CC(C)(C)NCCCCCNC(=O)c1cccc(Br)c1 [3-Bromo-N-(5-(tert-butylamino)pentyl)benzamide (12)]
> 100 µM: all assays above

CC(C)(C)NCCCNC(=O)c1ccc(Br)cc1 [4-Bromo-N-(3-(tert-butylamino)propyl)benzamide (15)]
> 100 µM: all assays above

CC(C)(C)NCCCNC(=O)c1cc(Br)ccn1 [4-Bromo-N-(3-(tert-butylamino)propyl)picolinamide (24)]
> 100 µM: all assays above

CC(C)(C)N1CCN(C(=O)c2cccc(Br)c2)CC1 [(3-Bromophenyl)(4-(tert-butyl)piperazin-1-yl)methanone (10)]
> 100 µM: all assays above

CC(C)(C)NCCCNC(=O)c1cc(C(F)(F)F)ccn1 [N-(3-(Tert-butylamino)propyl)-4-(trifluoromethyl)picolinamide (25)]
> 100 µM: all assays above
